Results on 7 compounds are retold here after PubChem BioAssay (NCI).

SMILES strings stand for the structures. “And” between values parts separate entries of the source, which are not always exact repeats. Equal values may be shown once.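 These data come from cells grown in 96-well plates and exposed to compound for 48 hours at five concentrations. The concentration for 50% growth inhibition is given as GI50. TGI denotes the concentration required for complete inhibition of growth.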

Holding throughout (test): DTP human tumour cell line panel, 48 h
Assay [1] deals with COLO 205 colon.
In assay [2] the test system is HCC-2998 colon.
Assay [3] deals with K-562 leukemia.
For assay [4], the system named is NCI-H522 lung.
The subject of assay [5] is SF-539 CNS.
Assay [6] deals with SK-MEL-2 melanoma.
Assay [7] deals with SN12C renal.
The subject of assay [8] is SNB-19 CNS.
In assay [9] the test system is SNB-75 CNS.
For assay [10], the system named is T-47D breast.

One may read the GI50 as the concentration that inhibits growth by half. As a reminder, the TGI is the concentration at which net growth stops. Low values mean more potent growth arrest, high ones less potent growth arrest. Consider `C(=N/Nc1ncnc2nc[nH]c12)/c1ccccn1`, for which the GI50 in [1] is 1720 nM; in assay [2] it was 422 nM; in [3] it was 803 nM; in assay [4], 551 nM; in assay [5], 1300 nM; in assay [6], 1340 nM. Also, the GI50 in assay [7] is 840 nM; in [8], 980 nM; in [9], 1730 nM; in [10] it was 308 nM. The TGI in assay [1] is above 100000 nM; in [2] it was above 36800 nM; in [3] it was above 100000 nM; in [4] it was above 100000 nM; in [5], 5720 nM; in [6], above 100000 nM. Moreover, the TGI was above 65100 nM in [7], above 100000 nM in assay [8], 35100 nM in [9] and above 100000 nM in assay [10].
As to `CCCCCCCCCCCCOC1C(CNC(=O)C2OC3OC(C)(C)OC3C2NC(=O)CN2CCN(c3ccccn3)CC2)OC2OC(C)(C)OC21` (stereo not given), the GI50 in [1] is 2330 nM; in [2] it was 6180 nM; in assay [3] it was 1670 nM; in assay [4], 1660 nM; in assay [5], 1930 nM; in assay [6], 1650 nM. In addition, the GI50 in assay [7] is 1750 nM; in assay [8] it was 2960 nM; in [9] it was 2310 nM; in [10], 2810 nM. The TGI in assay [1] is 5010 nM; in assay [2] it was 19700 nM; in assay [3], 4560 nM; in assay [4], 3200 nM; in [5], 3440 nM; in assay [6], 3320 nM. Also, the TGI in assay [7] was determined as 3240 nM; in assay [8] it was 7990 nM; in assay [9] it was 6770 nM; in [10] it was 8610 nM.
As to `CCOC(=O)c1c[nH]c2c(OCc3ccccc3)c3ccccc3c(O)c2c1=O`, the GI50 was 47000 nM in assay [1]; 37400 nM in assay [2]; 3150 nM in assay [3]; 13300 nM in [4]; 2530 nM in assay [5]; 42500 nM in assay [6]. Moreover, the GI50 in assay [7] was 22200 nM; in assay [8], 16700 nM; in assay [9], 11600 nM; in assay [10] it was 18500 nM. Also, the TGI in assay [1] was above 100000 nM; in [2], above 100000 nM; in assay [3], above 39100 nM; in assay [4] it was above 83900 nM; in assay [5] it was 11200 nM; in [6] it was above 100000 nM. The concentration for total growth inhibition (TGI) in [7] was above 100000 nM; in assay [8], 97100 nM; in [9], above 54400 nM; in assay [10], 69600 nM.
For the compound `CSC(=S)N/N=C/c1ccccc1`, the TGI in [1], in assay [2], in assay [3], in [4], in [5] and in [6] was above 100000 nM in each case. The TGI in assay [7] is above 100000 nM; in [8], above 100000 nM; in assay [9] it was above 100000 nM; in assay [10], 72100 nM.
For `CCOC(=O)c1ccc2c(c1)[n+](=O)c(C(=O)c1ccc3ccccc3c1)c(C(F)(F)F)n2[O-]`, the GI50 in assay [1] was 1520 nM; in [2] it was 1650 nM; in assay [3], 312 nM; in assay [4], 458 nM; in [5], 1560 nM; in [6], 1820 nM. Further, the GI50 in assay [7] is 1630 nM; in [8], 1700 nM; in assay [9], 1130 nM; in [10] it was 860 nM. Besides, the TGI came out at 2870 nM in [1]; 3030 nM in [2]; 1510 nM in [3]; 1870 nM in [4]; 2900 nM in assay [5]; 3400 nM in assay [6]. In addition, the TGI in assay [7] was determined as 3580 nM; in [8], 3070 nM; in assay [9], 2340 nM; in [10], 2320 nM.
With `CN(C)c1ccc(/C=C(\C#N)c2cc3ccccc3n2C)cc1`, the 50% growth inhibitory concentration (GI50) was 258 nM in assay [1]; 293 nM in assay [2]; 40.7 nM in [3]; 122 nM in [4]; 208 nM in [5]; 328 nM in assay [6]. Besides, the GI50 in [7] is 482 nM; in [8] it was 357 nM; in assay [9], 56.2 nM; in assay [10], 204 nM. For the same compound, the TGI in assay [1] is 1720 nM; in assay [2] it was above 43800 nM; in [3] it was above 100000 nM; in assay [4] it was 1290 nM; in [5], 713 nM; in assay [6] it was above 100000 nM. Moreover, the TGI was above 100000 nM in assay [7], above 100000 nM in assay [8], 1750 nM in [9] and above 100000 nM in assay [10].
As for `CC1(C)CC(=O)C2=C(C1)NC(SSC1=C(C#N)C(c3ccc(Br)cc3)C3=C(CC(C)(C)CC3=O)N1)=C(C#N)C2c1ccc(Br)cc1` (stereo not given), the GI50 in [1] is above 150 µg/mL; in [2], above 150 µg/mL; in assay [3] it was 30.8 µg/mL; in assay [4] it was 30 µg/mL; in [5], above 150 µg/mL; in assay [6], above 150 µg/mL. For the same compound, the GI50 in [7] is 71.2 µg/mL; in [8] it was above 150 µg/mL; in [9], above 150 µg/mL; in [10], 35 µg/mL. Moreover, the TGI in assay [1] is > 100 µM and 150 µg/mL; in assay [2], 150 µg/mL; in assay [3] it was > 100 µM and 76.4 µg/mL; in assay [4] it was > 100 µM and 53.5 µg/mL; in assay [5] it was > 100 µM and 150 µg/mL; in assay [6] it was > 100 µM and 150 µg/mL. Further, the concentration for total growth inhibition (TGI) in assay [7] was > 100 µM and 150 µg/mL; in assay [8] it was > 100 µM and 150 µg/mL; in assay [9] it was 150 µg/mL; in assay [10], > 100 µM and 119 µg/mL.
